Where a SMILES comes first, the peptide text is derived from it. The star is where a group is joined. βNA = c1ccc2cc(N*)ccc2c1; NHcHex = C1CCC(N*)CC1; NHPh = c1ccc(N*)cc1; X1 = c1ccc(NN*)cc1; NHiPr = CC(C)N*; For = O=C*

The values below come from patent EP0361977A2, “Peptides having T cell suppressor activity” (IMM[…] INSTITUTE, INC., priority 1988, dated 1990).

The subject of one assay is CEM cells. In words: Cyclic GMP assay in CEM cells. It counts as cell-based, human. Particulars: for T cell suppressor activity: thymopentin-like activity, cyclic GMP assays on CEM cells; for induction of intracellular cyclic GMP (active / inactive peptides): CEM cells, dose-response curves from 1 to 1000 micrograms/ml, Fig. 1, composite of 6 experiments, compared with thymopentin. An excerpt: This assay measures the ability of a peptide of this invention to bind to the cell membrane receptor of the intact CEM cell and selectively stimulate production of cyclic GMP, as does human thymopentin.
The CEM cell line was obtained from the American Type Culture Collection of Rockville, Md. CEM cells were freshly seeded and grown for 3 days with harvesting as described in T. Audhya et al, Arch. Biochem Biophys., 234: 167-177 (1984). The cells were washed 3 times in PBS and resuspended in RPMI 1640 at a concentration of 1.0 x 10⁷ cells/ml and were allowed to equilibrate at 37°C for 30 minutes before the addition of the test peptides (25 ul) and control peptides. The incubation was allowed to proceed in a shaking water bath for 4-5 minutes and was then terminated by addition of 1 ml ice-cold TCA (10 percent).
The cells in TCA were homogenized and sonicated to release cyclic nucleotide. The suspension was centrifuged at 3000 x g for 20 minutes at 4°C. The resulting precipitate was dissolved in 0.1 N NaOH to determine the protein content. TCA was removed from the supernatant fraction by extracting 4 times with 5 ml of water-saturated ET₂O. After the final extraction, the remaining traces of ether were removed by heating for 10 minutes in a 50°C water bath. After lyophilization the sample was reconstituted in 50 mM acetate buffer (pH 6.2) for radioimmunoassay of cyclic GMP.
For example, dose-response curves from 1 to 1000 micrograms/ml of peptide, were evaluated for each compound. […] A threshold activity was determined for each peptide tested. This is defined as the lowest concentration of the test peptide which induced an intracellular level of cyclic GMP greater than two standard deviations above the control. The controls had intracellular cyclic GMP values of less than 0.9 picomoles/ml (mean±standard deviation). Test results were considered positive if the level of cyclic GMP was greater than 2 times that determined for the parallel negative control. Active peptides had activity thresholds ranging from […].

In a further assay the test system is MOLT-4 cells. Description: T cell helper activity, MOLT-4 T cell line (intracellular cGMP). The assay is classed as cell-based, human. The note with it: thymopentin-like; assay not described for these peptides.
The next assay concerns helper T cell activity. The note with it: mice; cited from earlier work.

As to `CCNC(=O)[C@@H](NC(=O)[C@H](CCC(=O)O)NC(=O)[C@@H]1CCCN1C(=O)[C@H](CCCNC(=N)N)NC(C)=O)C(C)C` [Acetyl-Arg-Pro-Glu-Val-Ethylamide, reference compound] (Ac-RPEV-NHEt), the “T cell suppressor activity” value in the assay with CEM cells is “do not display T cell suppressor stimulatory activity of thymopentin”. With `CC(C)[C@H](NC(=O)[C@H](CC(=O)O)NC(=O)[C@H](CCCCN)NC(=O)[C@@H](N)CCCNC(=N)N)C(=O)Nc1ccc2ccccc2c1` [Arg-Lys-Asp-Val-2-Naphthylamide, reference compound] (H-RKDV-βNA), in the assay on CEM cells, the “induction of intracellular cyclic GMP (active / inactive peptides)” value (“induction … (active / inactive peptides)” for short) is “inactive” and the “T cell suppressor activity” value is on record as “do not display T cell suppressor stimulatory activity of thymopentin”. In the case of `CC(C)[C@H](NC(=O)[C@H](CC(=O)O)NC(=O)[C@H](CCCCN)NC(=O)[C@@H](N)CCCNC(=N)N)C(=O)Nc1ccccc1` [Arg-Lys-Asp-Val-Anilineamide] (H-RKDV-NHPh), in the assay on CEM cells, the “induction … (active / inactive peptides)” value is on record as “active”. For `CC(C)[C@H](NC(=O)[C@H](CC(=O)O)NC(=O)[C@H](CCCCN)NC(=O)[C@@H](N)CCCNC(=N)N)C(=O)NC1CCCCC1` [Arg-Lys-Asp-Val-Cyclohexylamide] (H-RKDV-NHcHex), the “induction … (active / inactive peptides)” value with CEM cells was “active”. Turning to `CC(C)NC(=O)[C@@H](NC(=O)[C@H](CC(=O)O)NC(=O)[C@H](CCCCN)NC(=O)[C@@H](N)CCCNC(=N)N)C(C)C` [Arg-Lys-Asp-Val-Isopropylamide, Arg-Lys-Asp-Val-2-propylamide] (H-RKDV-NHiPr), the “T cell helper activity” value with MOLT-4 cells is “display both T cell suppressor and helper activities like thymopentin”. Moreover, the “T cell suppressor activity” value with CEM cells is “display both T cell suppressor and helper activities like thymopentin”. In the case of `CC(C)[C@H](NC(=O)[C@H](CC(=O)O)NC(=O)[C@H](CCCCN)NC(=O)[C@@H](N)CCCNC(=N)N)C(=O)NNc1ccccc1` [Arg-Lys-Asp-Val-Phenylhydrazide, Arg-Lys-Asp-Val-2-Phenylhydrazide] (H-RKDV-X1), the “induction … (active / inactive peptides)” value in the assay on CEM cells is “active”.

For the compound `CC(C)NC(=O)[C@@H](NC(=O)[C@H](CC(=O)O)NC(=O)[C@@H]1CCCN1C(=O)[C@@H](N)CCCNC(=N)N)C(C)C` [Arg-Pro-Asp-Val-Isopropylamide] (H-RPDV-NHiPr), in the assay on MOLT-4 cells, the “T cell helper activity” value was “display both T cell suppressor and helper activities like thymopentin”. Also, in the assay on CEM cells, the “induction … (active / inactive peptides)” value was “active”; the “T cell suppressor activity” value is “display both T cell suppressor and helper activities like thymopentin”. In the case of `CNC(=O)[C@@H](NC(=O)[C@H](CC(=O)O)NC(=O)[C@@H]1CCCN1C(=O)[C@H](CCCNC(=N)N)NC=O)C(C)C` [Formyl-Arg-Pro-Asp-Val-Methylamide, N-formyl-Arg-Pro-Asp-Val-Methylamide] (For-RPDV-NHMe), the “T cell helper activity” value in the assay on MOLT-4 cells is “display both T cell suppressor and helper activities like thymopentin”. Further, the “T cell suppressor activity” value with CEM cells is “display both T cell suppressor and helper activities like thymopentin”. Turning to “Arg-Lys-Asp-Val-Dimethylamide [reference compound]”, in the assay on CEM cells, the “induction … (active / inactive peptides)” value was “inactive” and the “T cell suppressor activity” value is “do not display T cell suppressor stimulatory activity of thymopentin”. Regarding Arg-Lys-Asp-Val-Piperidineamide, the “induction … (active / inactive peptides)” value with CEM cells was “active”. For the compound Arg-Lys-Glu-Val-Tyr [SP-5], the “helper T cell activity in vivo” value in the assay on helper T cell activity is recorded as “stimulates helper T cell activity in vivo in mice”.

Regarding “Arg-Pro-Asp-Val-Morpholinoamide [reference compound]”, the “T cell suppressor activity” value in the assay with CEM cells is listed as “do not display T cell suppressor stimulatory activity of thymopentin”.
